Patent US20230391786A1, “cGAS INHIBITORS” (Eli Lilly and Company, priority 2022, published 2023)
Where two headings read alike, the source gives them in different places.

Assays:
[1] = test system: cGAS activity in THP1 cells (IFNb as marker); assay: Cellular assay to measure cGAS activity (IFNb production in PMA-differentiated THP1 cells stimulated by RDG-Adenovirus-GFP); type: cell-based, human; conditions: PMA differentiated, RDG-Adenovirus-GFP 1000 MOI, IFNb AlphaLISA, overnight incubation, read-out: IC50 (μM), Cellular assay for Compounds 95-348
Experimental: Cellular assay to measure cGAS activity: Use THP1 cell line from ATCC to determine inhibition of cGAS activity by test compounds in human cells. Plate cells on 96-well plates at 0.2×10^6/well and differentiate with phorbol myristate acetate (PMA) at 37° C./5% CO2. After 24 hours, replace PMA containing media with media lacking PMA and further incubate overnight. Stimulate cells were then by RDG-Adenovirus-GFP (Vector Biolabs #1768) at 1000 MOI for 4 hours prior to the addition of test compounds. After overnight incubation, transfer 10 μL of the media from each well to a new plate for IFNb analysis as a marker for cGAS activity. Measure quantification of IFNb with an IFNb AlphaLISA Detection kit (Perkin Elmer AL3133F) by mixing the acceptor beads with the cell supernatant followed by the addition of the biotinylated antibody and donor beads. Measure the relative fluorescence signal produced from the interaction of the donor and acceptor beads by a PHERAStar AlphaLISA protocol and evaluate the inhibitory effect of a compound by plotting specific inhibition of IFNb production against log concentration of the test compound. Calculate IC50 values using a 4-parameter non-linear logistic equation (y=(S0+((SInf−S0)/(1+((qAC50/x)^nHill))))).

recombinant human cGAS = recombinant human cGAS (Homo sapiens (Human), UniProt Q8N884); assay: In vitro inhibition assay of cGAS activity (cGAMP production, RapidFire mass spectrometry); type: biochemical; conditions: 10 nM recombinant human cGAS, 60 nM 75-bp dsDNA, ATP, GTP, room temperature 3 hours, read-out: IC50 (μM), In vitro inhibition assay for Compounds 95-348
Outline: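 Product cGAMP was quantified by RapidFire MS against a difluoro-cGAMP internal standard after a formic acid quench. The reaction contained 10 nM recombinant full-length human cGAS, 75-bp dsDNA (60 nM), ATP and GTP (50 μM) and ran for 3 h at room temperature. IC50 values came from 4-parameter nonlinear regression.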

[2] = Homo sapiens, THP-1, THP1 cells

Sequence of recombinant human cGAS (Q8N884 whole entry): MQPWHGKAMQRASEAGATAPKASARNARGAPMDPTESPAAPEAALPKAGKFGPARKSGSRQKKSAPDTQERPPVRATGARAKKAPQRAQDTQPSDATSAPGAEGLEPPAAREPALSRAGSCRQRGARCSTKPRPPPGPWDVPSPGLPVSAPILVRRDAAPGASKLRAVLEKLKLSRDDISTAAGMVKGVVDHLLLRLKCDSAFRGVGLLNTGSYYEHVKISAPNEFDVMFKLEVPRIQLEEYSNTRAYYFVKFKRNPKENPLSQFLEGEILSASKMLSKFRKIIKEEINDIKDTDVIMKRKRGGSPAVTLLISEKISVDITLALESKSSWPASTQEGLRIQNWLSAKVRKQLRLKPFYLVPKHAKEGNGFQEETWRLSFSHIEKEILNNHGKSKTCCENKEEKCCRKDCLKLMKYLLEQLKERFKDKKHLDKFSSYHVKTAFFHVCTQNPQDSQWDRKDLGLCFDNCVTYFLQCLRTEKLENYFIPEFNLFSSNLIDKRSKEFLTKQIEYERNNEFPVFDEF

Structure (SMILES)	IC50 [1, 2] [µM]	IC50 (recombinant human cGAS) [µM]	IC50 ([1]; THP1 cells) [µM]
O=C(NCc1[nH]c2c(Cl)c(Cl)ccc2c1-c1cn[nH]c1)c1nnco1 [Example 165, N-[[6,7-Dichloro-3-(1H-pyrazol-4-yl)-1H-indol-2-yl]methyl]-1,3,4-oxadiazole-2-carboxamide]	1.32	0.0894	–
NC(=O)NCc1[nH]c2c(Cl)c(Cl)ccc2c1-c1cn[nH]c1 [Example 164, [6,7-Dichloro-3-(1H-pyrazol-4-yl)-1H-indol-2-yl]methylurea]	1.34	0.0543	–
O=C(CC1COCCO1)N1CCn2c(c(-c3cn[nH]c3)c3ccc(Cl)c(Cl)c32)C1 (stereo not shown) [Example 299, 1-(6,7-Dichloro-10-(1H-pyrazol-4-yl)-3,4-dihydropyrazino[1,2-a]indol-2(1H)-yl)-2-(1,4-dioxan-2-yl)ethan-1-one]	> 10	0.0257	–
O=C(CO)NC1CCn2c1c(-c1cn[nH]c1)c1ccc(Cl)c(Cl)c12 (single isomer, unassigned) [Example 345, N-(5,6-Dichloro-9-(1H-pyrazol-4-yl)-2,3-dihydro-1H-pyrrolo[1,2-a]indol-1-yl)-2-hydroxyacetamide]	–	0.0628	3.97
NC(=O)Cn1cc(-n2cc(-c3cn[nH]c3)c3ccc(Cl)cc32)nn1 [Example 227, 2-[4-[6-Chloro-3-(1H-pyrazol-4-yl)indol-1-yl]triazol-1-yl]acetamide]	1.6	0.0408	–
CCOc1cc(Cl)c(Cl)c2c1c(-c1cn[nH]c1)c1n2CC[C@@H]1NC(C)=O [Example 233, (S)—N-(5,6-Dichloro-8-ethoxy-9-(1H-pyrazol-4-yl)-2,3-dihydro-1H-pyrrolo[1,2-a]indol-1-yl)acetamide]	1.13	0.0806	–
O=C(NC1CCc2c(-c3cn[nH]c3)c3ccc(Cl)c(Cl)c3n2C1)C1CCOCC1 (stereo not shown) [Example 96, N-[3,4-Dichloro-10-(1H-pyrazol-4-yl)-6,7,8,9-tetrahydropyrido[1,2-a]indol-7-yl]tetrahydropyran-4-carboxamide]	2.43	0.0449	–
O=C(Cc1[nH]c2c(Cl)c(Cl)ccc2c1-c1cn[nH]c1)NCc1cc[nH]n1 [Example 178, 2-[6,7-Dichloro-3-(1H-pyrazol-4-yl)-1H-indol-2-yl]-N-(1H-pyrazol-3-ylmethyl) acetamide]	3.62	0.0413	–
O[C@H]1CC[C@@H](Nc2cc(Cl)c(Cl)c3[nH]cc(-c4cn[nH]c4)c23)C1 (single isomer, unassigned; isomer 2) [Example 210, Cis-3-[[6,7-Dichloro-3-(1H-pyrazol-4-yl)-1H-indol-4-yl]amino]cyclopentanol, isomer 2]	2.17	0.0365	–
O=C(NCc1[nH]c2c(Cl)c(Cl)ccc2c1-c1cn[nH]c1)C1COC1 [Example 224, N-[[6,7-Dichloro-3-(1H-pyrazol-4-yl)-1H-indol-2-yl]methyl]oxetane-3-carboxamide]	2.73	0.0704	–
N#CCOc1cc(Cl)c(Cl)c2c1c(-c1cn[nH]c1)c1n2CCN(C(=O)CCn2cncn2)C1 [Example 292, 2-((2-(3-(1H-1,2,4-Triazol-1-yl)propanoyl)-6,7-dichloro-10-(1H-pyrazol-4-yl)-1,2,3,4-tetrahydropyrazino[1,2-a]indol-9-yl)oxy)acetonitrile]	4.08	0.0365	–
CC(=O)Nc1cc(Cl)c(Cl)c2[nH]c(CNC(=O)CO)c(-c3cn[nH]c3)c12 [Example 222, N-[[4-Acetamido-6,7-dichloro-3-(1H-pyrazol-4-yl)-1H-indol-2-yl]methyl]-2-hydroxy-acetamide]	> 10	0.0927	–
N#CCOc1cc(Cl)c(Cl)c2c1c(-c1cn[nH]c1)c1n2CCN(c2ncccn2)C1 [Example 204, 2-[[6,7-Dichloro-10-(1H-pyrazol-4-yl)-2-pyrimidin-2-yl-3,4-dihydro-1H-pyrazino[1,2-a]indol-9-yl]oxy]acetonitrile]	0.854	0.0201	–
CN(C)C(=O)CC(=O)N1CCn2c(c(-c3cn[nH]c3)c3ccc(Cl)c(Cl)c32)C1 [Example 302, 3-(6,7-Dichloro-10-(1H-pyrazol-4-yl)-3,4-dihydropyrazino[1,2-a]indol-2(1H)-yl)-N,N-dimethyl-3-oxopropanamide]	6.95	0.0323	–
O[C@@H]1C[C@H](Oc2cc(Cl)c(Cl)c3[nH]cc(-c4cn[nH]c4)c23)[C@@H](O)C1 (single isomer, unassigned) [Example 271, 4-[[6,7-Dichloro-3-(1H-pyrazol-4-yl)-1H-indol-4-yl]oxy]cyclopentane-1,3-diol]	–	0.184	6.75
OC1Cc2c(-c3cn[nH]c3)c3ccc(Cl)c(Cl)c3n2C1 (stereo not shown) [Example 278, 5,6-Dichloro-9-(1H-pyrazol-4-yl)-2,3-dihydro-1H-pyrrolo[1,2-a]indol-2-ol]	2.19	0.0391	–
CS(=O)(=O)NC1Cc2c(-c3cn[nH]c3)c3ccc(Cl)c(Cl)c3n2C1 (stereo not shown) [Example 246, N-(5,6-Dichloro-9-(1H-pyrazol-4-yl)-2,3-dihydro-1H-pyrrolo[1,2-a]indol-2-yl)methanesulfonamide]	9.23	0.0313	–
O[C@@H]1C[C@H](Oc2cc(Cl)c(Cl)c3[nH]cc(-c4cn[nH]c4)c23)[C@@H](O)C1 (single isomer, unassigned) [Example 270, 4-[[6,7-Dichloro-3-(1H-pyrazol-4-yl)-1H-indol-4-yl]oxy]cyclopentane-1,3-diol]	–	0.0207	0.635
O=C1NCC(C(=O)N2CCn3c(c(-c4cn[nH]c4)c4ccc(Cl)c(Cl)c43)C2)O1 (stereo not shown) [Example 180, 5-[6,7-Dichloro-10-(1H-pyrazol-4-yl)-3,4-dihydro-1H-pyrazino[1,2-a]indole-2-carbonyl]oxazolidin-2-one]	1.85	0.018	–
CC(=O)NC1CCCn2c1c(-c1cn[nH]c1)c1c(OCC#N)cc(Cl)c(Cl)c12 (stereo not shown) [Example 202, N-[3,4-Dichloro-1-(cyanomethoxy)-10-(1H-pyrazol-4-yl)-6,7,8,9-tetrahydropyrido[1,2-a]indol-9-yl]acetamide]	2.68	0.0191	–

These reach a lower IC50 (recombinant human cGAS). Values come first.

IC50 [1, 2] [µM]	IC50 (recombinant human cGAS) [µM]	IC50 ([1]; THP1 cells) [µM]	Structure (SMILES)
1.74	0.015	–	O=C(CO)NC1CCn2c1c(-c1cn[nH]c1)c1ccc(Cl)c(Cl)c12 (stereo not shown) [Example 237, N-(5,6-Dichloro-9-(1H-pyrazol-4-yl)-2,3-dihydro-1H-pyrrolo[1,2-a]indol-1-yl)-2-hydroxyacetamide]
1.4	0.0142	–	COc1cc2c(-c3cn[nH]c3)cn(-c3cn(CCO)nn3)c2cc1Cl [Example 152, 2-[4-[6-Chloro-5-methoxy-3-(1H-pyrazol-4-yl)indol-1-yl]triazol-1-yl]ethanol]
0.909	0.0127	–	OCC(F)(F)CNc1cc(Cl)c(Cl)c2[nH]cc(-c3cn[nH]c3)c12 [Example 186, 3-[[6,7-Dichloro-3-(1H-pyrazol-4-yl)-1H-indol-4-yl]amino]-2,2-difluoro-propan-1-ol]
0.23	0.0121	–	O=C(Nc1cc(Cl)c(Cl)c2[nH]c(CCO)c(-c3cn[nH]c3)c12)C(F)F [Example 225, N-[6,7-Dichloro-2-(2-hydroxyethyl)-3-(1H-pyrazol-4-yl)-1H-indol-4-yl]-2,2-difluoro-acetamide]
1.06	0.00893	–	N#CCOc1cc(Cl)c(Cl)c2c1c(-c1cn[nH]c1)cn2-c1cn(CCO)nn1 [Example 197, 22-[6,7-Dichloro-1-[1-(2-hydroxyethyl)triazol-4-yl]-3-(1H-pyrazol-4-yl)indol-4-yl]oxyacetonitrile]
1	0.0089	–	CN1CCO[C@@H](C(=O)N2CCn3c(c(-c4cn[nH]c4)c4c(OCC#N)cc(Cl)c(Cl)c43)C2)C1 [Example 281, (R)-2-((6,7-Dichloro-2-(4-methylmorpholine-2-carbonyl)-10-(1H-pyrazol-4-yl)-1,2,3,4-tetrahydropyrazino[1,2-a]indol-9-yl)oxy)acetonitrile]
0.74	0.0072	–	COCC(=O)N1CCn2c(c(-c3cn[nH]c3)c3c(OCC#N)cc(Cl)c(Cl)c32)C1 [Example 279, 2-((6,7-Dichloro-2-(2-methoxyacetyl)-10-(1H-pyrazol-4-yl)-1,2,3,4-tetrahydropyrazino[1,2-a]indol-9-yl)oxy)acetonitrile]
0.365	0.00695	–	OCCCOc1cc(Cl)c(Cl)c2c1c(-c1cn[nH]c1)c1n2CC(O)CC1 (stereo not shown) [Example 348, 3,4-Dichloro-1-(3-hydroxypropoxy)-10-(1H-pyrazol-4-yl)-6,7,8,9-tetrahydropyrido[1,2-a]indol-7-ol]
0.807	0.00511	–	CC(=O)NCc1[nH]c2c(Cl)c(Cl)cc(OCC#N)c2c1-c1cn[nH]c1 [Example 153, N-((6,7-Dichloro-4-(cyanomethoxy)-3-(1H-pyrazol-4-yl)-1H-indol-2-yl)methyl)acetamide]
